Results taken from paper PMC10583824, “The rational design of ARUK2007145, a dual inhibitor of the α and γ isoforms of the lipid kinase phosphatidylinositol 5-phosphate 4-kinase (PI5P4K)” (RSC Medicinal Chemistry, 2023).

Key:
PI5P4Kα [1] = molecular target: T1, PI5P4Kα (Homo sapiens, UniProt P48426); experiment: biochemical
T1 sequence (P48426 1-406): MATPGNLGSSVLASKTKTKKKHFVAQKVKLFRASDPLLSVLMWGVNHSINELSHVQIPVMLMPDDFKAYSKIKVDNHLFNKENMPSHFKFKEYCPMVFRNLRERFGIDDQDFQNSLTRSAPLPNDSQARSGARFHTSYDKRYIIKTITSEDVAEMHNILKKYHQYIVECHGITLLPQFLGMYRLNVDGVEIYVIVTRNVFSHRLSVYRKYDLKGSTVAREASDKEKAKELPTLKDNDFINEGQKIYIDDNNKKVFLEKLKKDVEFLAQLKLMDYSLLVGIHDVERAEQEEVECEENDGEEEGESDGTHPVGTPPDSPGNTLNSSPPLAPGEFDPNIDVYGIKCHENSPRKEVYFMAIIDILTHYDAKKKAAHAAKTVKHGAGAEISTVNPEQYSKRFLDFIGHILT

PI5P4Kγ+ [2] = molecular target: T2, PI5P4Kγ+ (Homo sapiens, UniProt Q8TBX8, D138G/D197E/E133P/E135D/E153T/E196G/G139A/N195G/S132L/S134N); experiment: biochemical
T2 sequence (Q8TBX8 with tags, fused parts or gaps INS131LPN/S132D/E133S/S134Q/E135A/G136R/D138G/G139A/E153T/N195G/E196G/D197E): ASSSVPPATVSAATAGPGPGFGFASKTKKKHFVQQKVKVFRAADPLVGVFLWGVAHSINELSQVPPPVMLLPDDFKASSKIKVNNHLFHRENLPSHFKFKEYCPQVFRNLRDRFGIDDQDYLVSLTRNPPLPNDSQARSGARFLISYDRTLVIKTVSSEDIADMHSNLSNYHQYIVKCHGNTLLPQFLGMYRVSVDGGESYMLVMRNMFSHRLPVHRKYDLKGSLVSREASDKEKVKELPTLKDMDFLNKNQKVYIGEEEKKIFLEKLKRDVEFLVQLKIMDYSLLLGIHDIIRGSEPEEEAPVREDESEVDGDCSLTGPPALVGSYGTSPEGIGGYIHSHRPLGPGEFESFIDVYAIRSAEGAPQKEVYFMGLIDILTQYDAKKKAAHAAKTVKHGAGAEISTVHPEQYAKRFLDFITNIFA

PI5P4Kγ+ [3] = conditions: ratio PI5P4Kα IC50 / PI5P4Kγ+ IC50, ADP-Glo
PI5P4Kα [4] = molecular target: T1, PI5P4Kα; conditions: for PI5P4Kα pIC50: footnote a: inconsistent replicates, value shown is upper limit; for ADP-Glo pIC50 PI5P4Kα: Table S1, two decimals, asterisk not explained
[5] = ADP-Glo pIC50 PI5P4Kα, Table S1, two decimals, asterisk not explained
[6] = ADP-Glo pIC50 PI5P4Kγ+, Table S1, two decimals, asterisk not explained
[7] = PI5P4Kγ+ pIC50, ADP-Glo, footnote a: inconsistent replicates, value shown is upper limit

Structure (SMILES)	IC50 (PI5P4Kα [1]; [5]) [nM]	IC50 (PI5P4Kγ+ [2]; [6]) [nM]	further results
CC(=O)NCc1cc2c(Nc3ccc(S(=O)(=O)C4CCCC4)cc3)ncnc2s1	4370	12.6	
CN(C)C(=O)c1cc2c(Nc3ccc(S(C)(=O)=O)cc3)ncnc2s1	6920	562	
COc1cnccc1-c1cc2c(Nc3ccc(C4CC4)cc3)ncnc2[nH]1	240	85.1	
COc1cnccc1-c1cc2c(Nc3ccc(C)c(C)c3)ncnc2s1	275	631	
COc1cnccc1-c1cc2c(Nc3ccc(C4CC4)cc3)ncnc2s1	269	63.1	
COc1ncccc1-c1cc2c(Nc3ccc(S(C)(=O)=O)cc3)ncnc2s1	2290	28.8	
CS(=O)(=O)c1ccc(Nc2ncnc3sc(-c4ccc(F)cc4F)cc23)cc1	1100	85.1	
CS(=O)(=O)c1ccc(Nc2ncnc3sc(-c4ccc(F)cc4)cc23)cc1	9770	52.5	
CS(=O)(=O)c1ccc(Nc2ncnc3sc(-c4cnoc4)cc23)cc1	2190	36.3	
CS(=O)(=O)c1ccc(Nc2ncnc3sc(C(F)F)cc23)cc1	8710	166	
Cc1cc2c(Nc3ccc(N4CC(C)(C)CC4=O)cc3)ncnc2s1	1170	132	
Cc1cc2c(Nc3ccc(S(=O)(=O)C4CC4)cc3)ncnc2s1	7760	75.9	
Cc1ccc(Nc2ncnc3sc(-c4cccnc4Cl)cc23)c(C)c1	2950	8320	
Clc1ncccc1-c1cc2c(Nc3ccc(C4CC4)cc3)ncnc2s1	195	67.6	
O=C(NCc1cc2c(Nc3ccc(S(=O)(=O)C4CCCC4)cc3)ncnc2s1)c1ccc(C2(C(F)(F)F)N=N2)cc1	5250	39.8	
N#Cc1cc2c(Nc3ccc(S(=O)(=O)C4CCCC4)cc3)ncnc2s1	4680	49	
Cc1c(C(=O)O)sc2ncnc(Nc3ccc(C(C)C)cc3)c12 [CC(C)c1ccc(cc1)Nc1ncnc2sc(c(c12)C)C(=O)O]	2750		
CCc1cc2c(Nc3ccc(N4CCCC4=O)c(C)c3)ncnc2s1 [CCc1cc2c(ncnc2s1)Nc1ccc(c(c1)C)N1CCCC1=O]	9770	288	
CCc1ccc(Nc2ncnc3sc(-c4cccnc4Cl)cc23)cc1 [CCc1ccc(cc1)Nc1ncnc2sc(cc12)-c1cccnc1Cl]	324	151	
CC(=O)N(C)c1ccc(Nc2ncnc3sc(C)cc23)cc1 [CN(C(=O)C)c1ccc(cc1)Nc1ncnc2sc(cc12)C]	1120		
COc1cc(Nc2ncnc3sc(C)cc23)ccc1N1CCCC1=O [COc1cc(ccc1N1CCCC1=O)Nc1ncnc2sc(cc12)C]	7240	214	
COc1cnccc1-c1cc2c(Nc3ccc(Cl)cc3)ncnc2s1 [COc1cnccc1-c1cc2c(ncnc2s1)Nc1ccc(cc1)Cl]	1320	63.1	

Structure (SMILES)	IC50 (PI5P4Kα [1]; [5]) [nM]	IC50 (PI5P4Kγ+ [2]; [6]) [nM]	further results
COc1cnccc1-c1cc2c(Nc3ccc(SC)cc3)ncnc2s1 [COc1cnccc1-c1cc2c(ncnc2s1)Nc1ccc(cc1)SC]	129	15.1	
COc1cnccc1-c1cc2c(Nc3ccc(C)cc3C)ncnc2s1 [COc1cnccc1-c1cc2c(ncnc2s1)Nc1ccc(cc1C)C]	5010	7410	
COc1cnccc1-c1cc2ncnc(Nc3ccc(SC)cc3)c2s1 [COc1cnccc1-c1cc2ncnc(c2s1)Nc1ccc(cc1)SC]	490	53.7	
CSc1ccc(Nc2ncnc3cc(-c4c(C)noc4C)sc23)cc1 [CSc1ccc(cc1)Nc1ncnc2cc(sc12)-c1c(noc1C)C]	22.4	32.4	
CSc1ccc(Nc2ncnc3cc(-c4cccnc4C)sc23)cc1 [CSc1ccc(cc1)Nc1ncnc2cc(sc12)-c1cccnc1C]	77.6	17	
CSc1ccc(Nc2ncnc3sc(-c4cncnc4)cc23)cc1 [CSc1ccc(cc1)Nc1ncnc2sc(cc12)-c1cncnc1]	234	29.5	
CSc1ccc(Nc2ncnc3sc(C)cc23)cc1 [CSc1ccc(cc1)Nc1ncnc2sc(cc12)C]	2340	178	
Cc1cc2c(Nc3ccc(N4CCCC4=O)c(C)c3)ncnc2s1 [Cc1cc2c(ncnc2s1)Nc1ccc(c(c1)C)N1CCCC1=O]	5370	200	
Cc1cc2c(Nc3ccc(Br)cc3)ncnc2s1 [Cc1cc2c(ncnc2s1)Nc1ccc(cc1)Br]	6920		
Cc1cc(Nc2ncnc3sc(-c4cccnc4Cl)cc23)ccc1Cl [Cc1cc(ccc1Cl)Nc1ncnc2sc(cc12)-c1cccnc1Cl]	2950	389	
Cc1cc(Cl)ccc1Nc1ncnc2sc(-c3cccnc3Cl)cc12 [Cc1cc(ccc1Nc1ncnc2sc(cc12)-c1cccnc1Cl)Cl]	5250	7940	
Cc1ccc(Nc2ncnc3sc(-c4cccnc4Cl)cc23)cc1 [Cc1ccc(cc1)Nc1ncnc2sc(cc12)-c1cccnc1Cl]	263	427	
Cc1ccc(Nc2ncnc3sc(-c4cccnc4Cl)cc23)cc1C [Cc1ccc(cc1C)Nc1ncnc2sc(cc12)-c1cccnc1Cl]	490	8510	
Cc1cccc(Nc2ncnc3sc(-c4cccnc4Cl)cc23)c1 [Cc1cccc(c1)Nc1ncnc2sc(cc12)-c1cccnc1Cl]	1450	2340	
COc1ccc(-n2ncc3c(Nc4ccc(OC)c(Cl)c4)ncnc32)cc1 [Compound 4, reference compound]			IC50 (PI5P4Kγ+ [2]; [7]): 12600 nM; Fold-selectivity (α IC50/γ IC50) (PI5P4Kγ+ [3]): 0.032
CS(=O)(=O)c1ccc(Nc2ncnc3sc(-c4cn[nH]c4)cc23)cc1 [Compound 7]		15.5	IC50 (PI5P4Kγ+ [2]; [7]): 15.8 nM; Fold-selectivity (α IC50/γ IC50) (PI5P4Kγ+ [3]): 79; PI5P4Kα pIC50 (PI5P4Kα [4]; ADP-Glo): 5.9; ADP-Glo pIC50 PI5P4Kα (PI5P4Kα [4]): 5.88
CS(=O)(=O)c1ccc(Nc2ncnc3sc(-c4ccncc4F)cc23)cc1 [Compound 12]			IC50 (PI5P4Kγ+ [2]; [7]): 100 nM; Fold-selectivity (α IC50/γ IC50) (PI5P4Kγ+ [3]): >250; PI5P4Kα pIC50 (PI5P4Kα [4]; ADP-Glo): <4.6
CS(=O)(=O)c1ccc(Nc2ncnc3sc(-c4cccnc4F)cc23)cc1 [Compound 16]	1480		IC50 (PI5P4Kα [1]; PI5P4Kα pIC50, ADP-Glo, footnote a: inconsistent replicates, value shown is upper limit): ≥ 1580 nM; IC50 (PI5P4Kγ+ [2]; [7]): 31.6 nM; Fold-selectivity (α IC50/γ IC50) (PI5P4Kγ+ [3]): 50
Cc1ccc(Nc2ncnc3sc(-c4cccnc4C)cc23)cc1C [Compound 18]		1350	IC50 (PI5P4Kγ+ [2]; [7]): 1260 nM; Fold-selectivity (α IC50/γ IC50) (PI5P4Kγ+ [3]): 0.25; PI5P4Kα pIC50 (PI5P4Kα [4]; ADP-Glo): 6.5; ADP-Glo pIC50 PI5P4Kα (PI5P4Kα [4]): 6.48
Cc1ccc(Nc2ncnc3sc(-c4cccnc4C)cc23)c(C)c1 [Compound 19]		4370	IC50 (PI5P4Kγ+ [2]; [7]): 3980 nM; Fold-selectivity (α IC50/γ IC50) (PI5P4Kγ+ [3]): 0.79; PI5P4Kα pIC50 (PI5P4Kα [4]; ADP-Glo): 5.5; ADP-Glo pIC50 PI5P4Kα (PI5P4Kα [4]): 5.48
CS(=O)(=O)c1ccc(Nc2ncnc3scc(C4CC4)c23)cc1 [Compound 33]			IC50 (PI5P4Kγ+ [2]; [7]): 100 nM; PI5P4Kα pIC50 (PI5P4Kα [4]; ADP-Glo): <4.8
CS(=O)(=O)c1ccc(Nc2ncnc3ccsc23)cc1 [Compound 36]			IC50 (PI5P4Kγ+ [2]; [7]): 50.1 nM; PI5P4Kα inhibition (in words) (PI5P4Kα [4]; ADP-Glo): undetectable; PI5P4Kα pIC50 (PI5P4Kα [4]; ADP-Glo): <4.3
